The values that follow come from patent US12473304B2, “Heterocyclic PAD4 inhibitors” (BRISTOL-MYERS SQUIBB COMPANY, priority 2020, dated 2025).

Each structure is given as a SMILES string.

Sequence of human PAD4 (hPAD4) (Q9UM07 whole entry): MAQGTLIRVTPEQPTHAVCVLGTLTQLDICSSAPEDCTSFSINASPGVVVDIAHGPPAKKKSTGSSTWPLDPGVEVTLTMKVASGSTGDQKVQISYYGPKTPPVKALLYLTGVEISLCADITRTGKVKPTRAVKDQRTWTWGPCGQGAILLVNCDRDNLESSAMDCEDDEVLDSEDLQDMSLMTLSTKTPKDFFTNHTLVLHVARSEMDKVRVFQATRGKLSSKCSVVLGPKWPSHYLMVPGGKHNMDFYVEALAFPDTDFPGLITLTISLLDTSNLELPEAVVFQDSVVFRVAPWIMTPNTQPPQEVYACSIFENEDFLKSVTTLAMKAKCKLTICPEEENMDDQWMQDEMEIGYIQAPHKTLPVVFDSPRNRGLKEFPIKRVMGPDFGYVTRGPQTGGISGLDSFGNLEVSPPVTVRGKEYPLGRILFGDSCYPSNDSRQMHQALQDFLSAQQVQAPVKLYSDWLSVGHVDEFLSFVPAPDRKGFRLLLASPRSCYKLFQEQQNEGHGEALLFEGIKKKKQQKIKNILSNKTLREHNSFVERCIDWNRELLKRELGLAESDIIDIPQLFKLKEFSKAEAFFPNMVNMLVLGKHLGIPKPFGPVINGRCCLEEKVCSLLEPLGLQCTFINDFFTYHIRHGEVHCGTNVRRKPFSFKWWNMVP

This test concerns the target human PAD4 (hPAD4) (Homo sapiens (Human), UniProt Q9UM07). Kind of test: RFMS Human PAD4 Functional Assay 1. Type of test: biochemical. To be noted: RFMS assay 1; 5 nM hPAD4, 250 μM BAEE substrate, 50 μM calcium, 37° C. The essentials:
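Recombinant hPAD4 (5 nM) was preincubated with compound (top 50 μM, 0.5% DMSO) for 30 min at 37 °C, then reacted with 250 μM BAEE for 90 min at 37 °C in pH 7.5 HEPES buffer with 50 μM calcium and 5 μM TPEN. Product was derivatized with phenyl glyoxal and quantified by RapidFire MS.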
By IC50 is commonly meant the concentration needed to halve the response being measured. For `Cc1c(-c2cc3cccc(C4CCN(C(=O)CC(C)C)CC4)c3n2CC2CC2)nn2cc(C(=O)N3CCC[C@@H](N)C3)ccc12` [Example 446, (R)-1-(4-(2-(6-(3-aminopiperidine-1-carbonyl)-3-methylpyrazolo[1,5-a]pyridin-2-yl)-1-(cyclopropylmethyl)-1H-indol-7-yl)piperidin-1-yl)-3-methylbutan-1-one], the IC50 was 0.13 µM.
As for `Cc1c(-c2cc3ccc(N4CCC(N(C)S(C)(=O)=O)CC4)cc3n2CC2CC2)nn2cc(C(=O)N3CCC[C@@H](N)C3)ccc12` [Example 360, N-[1-(2-{6-[(3R)-3-Aminopiperidine-1-carbonyl]-3-methylpyrazolo[1,5-a]pyridin-2-yl}-1-(cyclopropylmethyl)-1H-indol-6-yl)piperidin-4-yl]-N-methylmethanesulfonamide], the figure is 0.45 µM; as for `COc1cc(C(=O)N2CC3CCC2[C@@H]3N)cc2sc(-c3cc4ccc(-c5ccc(C(N)=O)c(F)c5)nc4n3CC3CC3)c(C)c12` (stereo partly drawn) [Example 133, 4-(2-(6-((7R)-7-Amino-2-azabicyclo[2.2.1]heptane-2-carbonyl)-4-methoxy-3-methylbenzo[b]thiophen-2-yl)-1-(cyclopropylmethyl)-1H-pyrrolo[2,3-b]pyridin-6-yl)-2-fluorobenzamide], 0.129 µM.
For the compound `Cc1c(-c2cc3ccc(-c4ccc5c(c4)CNC5=O)cc3n2CC2CC2)nn2cc(C(=O)N3C[C@H](N)C[C@@H](F)C3)ccc12` [Example 95, 5-(2-(6-((3R,5R)-3-Amino-5-fluoropiperidine-1-carbonyl)-3-methylpyrazolo[1,5-a]pyridin-2-yl)-1-(cyclopropylmethyl)-1H-indol-6-yl)isoindolin-1-one], the IC50 turned out to be 0.133 µM.
To `Cc1c(-c2cc3cccc(OCCn4cc(N)cn4)c3n2CC2CC2)nn2cc(C(=O)N3C[C@H](N)C[C@@H](F)C3)ccc12` [Example 583, (2-(7-(2-(4-Amino-1H-pyrazol-1-yl)ethoxy)-1-(cyclopropylmethyl)-1H-indol-2-yl)-3-methylpyrazolo[1,5-a]pyridin-6-yl)((3R,5R)-3-amino-5-fluoropiperidin-1-yl)methanone] belongs 1.61 µM; to `COc1cc(-c2ccc3cc(-c4nn5cc(C(=O)N6CC7CCC6[C@@H]7N)ccc5c4C)n(CC4CC4)c3n2)ccc1C(N)=O` (stereo partly drawn) [Example 303, 4-(2-{6-[(7R)-7-Amino-2-azabicyclo[2.2.1]heptane-2-carbonyl]-3-methylpyrazolo[1,5-a]pyridin-2-yl}-1-(cyclopropylmethyl)-1H-pyrrolo[2,3-b]pyridin-6-yl)-2-methoxybenzamide], 0.24 µM; to `COCC(=O)N1CC(c2cccc3cc(-c4nn5cc(C(=O)N6CCC[C@@H](N)C6)cc(OC)c5c4C)n(CC4CC4)c23)C1` [Example 529, (R)-1-(3-(2-(6-(3-Aminopiperidine-1-carbonyl)-4-methoxy-3-methylpyrazolo[1,5-a]pyridin-2-yl)-1-(cyclopropylmethyl)-1H-indol-7-yl)azetidin-1-yl)-2-methoxyethan-1-one], 1.53 µM.
With `COc1cc(C(=O)N2CC3CCC2[C@@H]3N)cc2oc(-c3cc4ccc(-c5ccn6c(C)nnc6c5)cc4n3CC3CC3)c(C)c12` (stereo partly drawn) [Example 157, ((7R)-7-Amino-2-azabicyclo[2.2.1]heptan-2-yl)(2-(1-(cyclopropylmethyl)-6-(3-methyl-[1,2,4]triazolo[4,3-a]pyridin-7-yl)-1H-indol-2-yl)-4-methoxy-3-methylbenzofuran-6-yl)methanone], the IC50 was 0.095 µM.
In the case of `COc1cc(C(=O)N2C[C@H](N)C[C@@H](F)C2)cn2nc(-c3cc4cccc(C5CCN(C(=O)C6CC(O)C6)CC5)c4n3CC3CC3)c(C)c12` (single isomer, unassigned) [Example 393], the IC50 came to 0.25 µM.
Turning to `Cc1c(-c2cc3ccc(C(C)(C)O)cc3n2CC2CC2)nn2cc(C(=O)N3CC4CCC3[C@@H]4N)ccc12` (stereo partly drawn) [Example 100, ((7R)-7-Amino-2-azabicyclo[2.2.1]heptan-2-yl)(2-(1-(cyclopropylmethyl)-6-(2-hydroxypropan-2-yl)-1H-indol-2-yl)-3-methylpyrazolo[1,5-a]pyridin-6-yl)methanone], the IC50 came out at 0.036 µM.
Turning to `Cc1c(-c2cc3cc(F)cc(C4CCN(C(=O)C5CCCO5)CC4)c3n2CC2CC2)nn2cc(C(=O)N3C[C@H](N)C[C@@H](F)C3)ccc12` (single isomer, unassigned) [Example 490], the IC50 was determined as 0.15 µM.
As for `CC(=O)N1CC(c2cccc3cc(-c4nn5cc(C(=O)N6CC7CCC6[C@@H]7N)ccc5c4C)n(CC4CC4)c23)C1` (stereo partly drawn) [Example 549, 1-(3-(2-(6-((7R)-7-Amino-2-azabicyclo[2.2.1]heptane-2-carbonyl)-3-methylpyrazolo[1,5-a]pyridin-2-yl)-1-(cyclopropylmethyl)-1H-indol-7-yl)azetidin-1-yl)ethan-1-one], the figure is 0.01 µM; as for `COc1cc(C(=O)N2CCC[C@@H](N)C2)cn2nc(-c3cc4cccc(OCC5CC(=O)N(C)C5)c4n3CC3CC3)c(C)c12` (single isomer, unassigned) [Example 552], 0.1 µM.
Consider `Cc1c(-c2cc3ccc(C(C)(O)C(F)F)nc3n2CC2CC2)nn2cc(C(=O)N3CC4CCC3[C@@H]4N)ccc12` (mixture of isomers) [Example 381, 2-(2-{6-[(7R)-7-Amino-2-azabicyclo[2.2.1]heptane-2-carbonyl]-3-methylpyrazolo[1,5-a]pyridin-2-yl}-1-(cyclopropylmethyl)-1H-pyrrolo[2,3-b]pyridin-6-yl)-1,1-difluoropropan-2-ol], for which the IC50 is 0.02 µM.
To `Cc1c(-c2cc3ccc(N4CC(N(C)S(C)(=O)=O)C4)cc3n2CC2CC2)nn2cc(C(=O)N3CCC[C@@H](N)C3)ccc12` [Example 366, N-[1-(2-{6-[(3R)-3-Aminopiperidine-1-carbonyl]-3-methylpyrazolo[1,5-a]pyridin-2-yl}-1-(cyclopropylmethyl)-1H-indol-6-yl)azetidin-3-yl]-N-methylmethanesulfonamide] belongs 0.87 µM; to `Cc1c(-c2cc3ccc(-c4ccc(N5CCNC5=O)cc4)nc3n2CC2CC2)nn2cc(C(=O)N3CC4CCC3[C@@H]4N)cc(F)c12` (stereo partly drawn) [Example 261, 1-[4-(2-{6-[(7R)-7-Amino-2-azabicyclo[2.2.1]heptane-2-carbonyl]-4-fluoro-3-methylpyrazolo[1,5-a]pyridin-2-yl}-1-(cyclopropylmethyl)-1H-pyrrolo[2,3-b]pyridin-6-yl)phenyl]imidazolidin-2-one], 0.42 µM.
To `Cc1c(-c2cc3cccc(C4CCN(C(=O)[C@@H]5CCC[C@H](O)C5)CC4)c3n2CC2CC2)nn2cc(C(=O)N3CCC[C@@H](N)C3)ccc12` [Example 440, ((R)-3-aminopiperidin-1-yl)(2-(1-(cyclopropylmethyl)-7-(1-((1R,3S)-3-hydroxycyclohexane-1-carbonyl)piperidin-4-yl)-1H-indol-2-yl)-3-methylpyrazolo[1,5-a]pyridin-6-yl)methanone] belongs 0.06 µM; to `COc1cc(C(=O)N2CC3CCC2[C@@H]3N)cc2oc(-c3cc4ccc(-c5ccc(O)c(F)c5)cc4n3CC3CC3)c(C)c12` (stereo partly drawn) [Example 154, ((7R)-7-Amino-2-azabicyclo[2.2.1]heptan-2-yl)(2-(1-(cyclopropylmethyl)-6-(3-fluoro-4-hydroxyphenyl)-1H-indol-2-yl)-4-methoxy-3-methylbenzofuran-6-yl)methanone], 1.01 µM; to `Cc1c(-c2cc3ccc(C(C)(O)C(F)(F)F)nc3n2CC2CC2)nn2cc(C(=O)N3C[C@H](N)C[C@@H](F)C3)ccc12` (single isomer, unassigned) [Example 107], 0.24 µM.
As for `Cc1c(-c2cc3ccc(-c4ccc5c(c4)CNC5=O)nc3n2CC2CC2)nn2cc(C(=O)N3C[C@H](N)C[C@@H](F)C3)ccc12` [Example 81, 5-(2-(6-((3R,5R)-3-Amino-5-fluoropiperidine-1-carbonyl)-3-methylpyrazolo[1,5-a]pyridin-2-yl)-1-(cyclopropylmethyl)-1H-pyrrolo[2,3-b]pyridin-6-yl)isoindolin-1-one], the figure is 0.384 µM; as for `Cc1c(-c2cc3cccnc3n2CC2CC2)oc2cc(C(=O)N3C[C@H](N)C[C@@H](F)C3)ccc12` [Example 174, ((3R,5R)-3-Amino-5-fluoropiperidin-1-yl)(2-(1-(cyclopropylmethyl)-1H-pyrrolo[2,3-b]pyridin-2-yl)-3-methylbenzofuran-6-yl)methanone], 0.204 µM.
In the case of `Cc1c(-c2cc3ccc(-c4cccc(O)c4F)nc3n2CC2CC2)oc2cc(C(=O)N3CC4CCC3[C@@H]4N)ccc12` (stereo partly drawn) [Example 169, ((7R)-7-Amino-2-azabicyclo[2.2.1]heptan-2-yl)(2-(1-(cyclopropylmethyl)-6-(2-fluoro-3-hydroxyphenyl)-1H-pyrrolo[2,3-b]pyridin-2-yl)-3-methylbenzofuran-6-yl)methanone], the IC50 is 0.181 µM.
To `COc1cc(C(=O)N2CCC[C@@H](N)C2)cn2nc(-c3cc4ccc(-c5ccc(CNS(C)(=O)=O)cc5)cc4n3CC3CC3)c(C)c12` [Example 234, N-{[4-(2-{6-[(3R)-3-Aminopiperidine-1-carbonyl]-4-methoxy-3-methylpyrazolo[1,5-a]pyridin-2-yl}-1-(cyclopropylmethyl)-1H-indol-6-yl)phenyl]methyl}methanesulfonamide] belongs 1.14 µM; to `Cc1c(-c2ccc3cc(-c4nn5cc(C(=O)N6CCC[C@@H](N)C6)ccc5c4C)n(CC4CC4)c3n2)cc(F)c2[nH]c(=O)ccc12` [Example 312, 6-(2-{6-[(3R)-3-Aminopiperidine-1-carbonyl]-3-methylpyrazolo[1,5-a]pyridin-2-yl}-1-(cyclopropylmethyl)-1H-pyrrolo[2,3-b]pyridin-6-yl)-8-fluoro-5-methyl-1,2-dihydroquinolin-2-one], 0.06 µM.
